Patent US6673770B1, “Peptides for the treatment, prophylaxis, diagnosis and monitoring of autoimmune diseases” (Upither B.V., priority 1998, dated 2004)

Experiments:
T cell clone A2b = assay: Recognition by A2b T-cell clone: proliferation and/or activation marker expression; assay type: cell-based, Lewis rats; conditions: positive: proliferation more than 2 times background in 2 of 4 experiments and/or activation marker upregulation in 2 of 3 experiments
Method: As an immediate read-out for mimicry peptides T-cell activation is measured by proliferation, TcR downregulation, expression of activation markers, and cytokines responses of clone A2b. In addition A2b-like T cells from arthritic rats are isolated, and activation of such cells is measured by, proliferation, TcR downregulation, expression of activation markers, and cytokines responses. Furthermore, T-cell lines are generated after immunisation with MT/IFA or selected peptides/DDA. The cross-reactive nature of the peptide specific T-cell responses is analysed in vitro by determining the recognition of both the self peptide as well as the mycobacterial hsp65 178-186 peptide. After testing the panel of n=65 peptides for induction of proliferation of T cell clone A2b, and/or induction of expression of activation markers, n=20 peptides (SEQ ID NOs: 15, 19, 20, 21, 22, 23, 24, 26, 30, 31, 32, 33, 35, 49, 51, 61, 63, 65, 67, 69) were considered positive. Criteria for positivity were that in 2 out of 4 experiments the induced proliferation was more than 2 times background proliferation as measured by ^3H-thymidine incorporation, and/or that in 2 out of 3 experiments upregulation of an activation marker was detectable by FACS analysis.

[1] = system: T cells from inguinal and popliteal lymph nodes and spleen; assay: T-cell recognition (proliferation) during adjuvant arthritis time course; assay type: cell-based, Lewis rats; conditions: positive: proliferation more than 1.5 times background in more than 25% of organs; days 14, 19, 21, 32, 39

Row | Sequence | Recognition by T cell clone A2b (T cell clone A2b) | T-cell recognition during adjuvant arthritis [1]
1 | LPSGGDDLE (listed as Rattus sp.) [SEQ ID NO: 22] | positive | positive
2 | SHSFPATLE (listed as Homo sapiens) [SEQ ID NO: 47] |  | positive
3 | VGSASGALD (listed as Rattus sp.) [SEQ ID NO: 20] | positive | positive
4 | FFSGSSQLE (listed as Rattus sp.) [SEQ ID NO: 49] | positive | positive
5 | NISLVGCIE (listed as Rattus sp.) [SEQ ID NO: 32] | positive | 
6 | LKSLSSQIE (listed as Homo sapiens) [SEQ ID NO: 19] | positive | 
7 | IDTAVLHLD (listed as Rattus sp.) [SEQ ID NO: 33] | positive | positive
8 | SHSAVCHLE (listed as Homo sapiens) [SEQ ID NO: 36] |  | positive
9 | LRSPVISIE (listed as Mus musculus) [SEQ ID NO: 24] | positive | positive
10 | LRSPVISID (listed as Homo sapiens) [SEQ ID NO: 23] | positive | positive
11 | PDSAPGEIE (listed as Rattus sp.) [SEQ ID NO: 31] | positive | positive
12 | SFSPTCVLE (listed as Homo sapiens) [SEQ ID NO: 38] |  | positive
13 | ISSFCTVVD (listed as Rattus sp.) [SEQ ID NO: 61] | positive | 
14 | TRSGNCYLD (listed as Homo sapiens) [SEQ ID NO: 54] |  | positive
15 | SGSFTTALD (listed as Homo sapiens) [SEQ ID NO: 65] | positive | positive
16 | LGSGSTRLE (listed as Homo sapiens) [SEQ ID NO: 40] |  | positive
17 | IPTVNENLE (listed as Rattus sp.) [SEQ ID NO: 35] | positive | positive
18 | VMSFVNMVE (listed as Homo sapiens) [SEQ ID NO: 69] | positive | 
19 | GHSPPDDVD (listed as Homo sapiens) [SEQ ID NO: 51] | positive | positive
20 | LRSINQGLD (listed as Rattus sp.) [SEQ ID NO: 67] | positive | 
21 | LPSGGESLE (listed as Rattus sp.) [SEQ ID NO: 21] | positive | positive
22 | SGTPVDDLD (listed as Rattus sp.) [SEQ ID NO: 63] | positive | positive
23 | GVSASVPVE (listed as Rattus sp.) [SEQ ID NO: 30] | positive | positive
